ChEMBL document CHEMBL3046627, “Synthesis and in vitro study of antibacterial, antifungal activities of some novel bisquinolines” (2013)
≈ marks a conversion by molar mass, not a printed value. Calls of active or inactive are those of the source. No cut-off for these calls is given here.

These compounds were tested on Bacillus pumilus (assay: Antibacterial activity against Bacillus pumilus 11778 assessed as growth inhibition after 24 hr by agar dilution method). Conditions: not given.
Type: functional

Structure (SMILES)	MIC
Cc1ccc2cccc(OCc3nc4ccccc4nc3COc3cccc4ccc(C)nc34)c2n1	inactive
c1cnc2c(OCc3ccc(COc4cccc5cccnc45)cc3)cccc2c1	inactive

Same assay, conditions: Bacillus pumilus, 11778, 24 h

Structure (SMILES)	MIC [µg/mL]
Clc1ccc(OCc2cccc(COc3ccc(Cl)c4cccnc34)c2)c2ncccc12	> 500

The compounds below were run on Klebsiella pneumoniae (assay: Antibacterial activity against Klebsiella pneumoniae J/I/4 assessed as growth inhibition at MIC after 24 hr by agar dilution method). Conditions: not given.
Type: functional

Structure (SMILES)	diameter of the inhibition zone (DIZ) [mm]
Clc1ccc(OCc2cccc(COc3ccc(Cl)c4cccnc34)c2)c2ncccc12	6

What follows are compounds tested on Cryptococcus neoformans (assay: Antifungal activity against Cryptococcus neoformans assessed as growth inhibition at MIC after 96 hr by agar dilution method). Conditions: not given.
Type: functional

Structure (SMILES)	diameter of the inhibition zone (DIZ)
Clc1ccc(OCc2cccc(COc3ccc(Cl)c4cccnc34)c2)c2ncccc12	inactive
c1cnc2c(OCc3ccc(COc4cccc5cccnc45)cc3)cccc2c1	inactive

The compounds below were run on Candida tropicalis (assay: Antifungal activity against Candida tropicalis assessed as growth inhibition at MIC after 96 hr by agar dilution method). Conditions: not given.
Type: functional

Structure (SMILES)	diameter of the inhibition zone (DIZ) [mm]
Clc1ccc(OCc2cccc(COc3ccc(Cl)c4cccnc34)c2)c2ncccc12	7

Each compound was assayed on Candida albicans (assay: Antifungal activity against Candida albicans assessed as growth inhibition at MIC after 96 hr by agar dilution method). Conditions: not given.
Type: functional

Structure (SMILES)	diameter of the inhibition zone (DIZ)
Clc1ccc(OCc2cccc(COc3ccc(Cl)c4cccnc34)c2)c2ncccc12	inactive
c1cnc2c(OCc3ccc(COc4cccc5cccnc45)cc3)cccc2c1	inactive

These compounds were tested on Candida albicans (assay: Antifungal activity against Candida albicans assessed as growth inhibition after 96 hr by agar dilution method). Conditions: not given.
Type: functional

Structure (SMILES)	MIC
Clc1ccc(OCc2cccc(COc3ccc(Cl)c4cccnc34)c2)c2ncccc12	inactive
Cc1ccc2cccc(OCc3nc4ccccc4nc3COc3cccc4ccc(C)nc34)c2n1	inactive
c1cnc2c(OCc3ccc(COc4cccc5cccnc45)cc3)cccc2c1	inactive

What follows are compounds tested on Pseudomonas aeruginosa (assay: Antibacterial activity against Pseudomonas aeruginosa 71 assessed as growth inhibition at MIC after 24 hr by agar dilution method). Conditions: not given.
Type: functional

Structure (SMILES)	diameter of the inhibition zone (DIZ) [mm]
Clc1ccc(OCc2cccc(COc3ccc(Cl)c4cccnc34)c2)c2ncccc12	6

The compounds below were run on Vibrio cholerae (assay: Antibacterial activity against Vibrio cholerae 759 assessed as growth inhibition at MIC after 24 hr by agar dilution method). Conditions: not given.
Type: functional

Structure (SMILES)	diameter of the inhibition zone (DIZ) [mm]
Clc1ccc(OCc2cccc(COc3ccc(Cl)c4cccnc34)c2)c2ncccc12	6

Each compound was assayed on Vibrio cholerae (assay: Antibacterial activity against Vibrio cholerae 759 assessed as growth inhibition after 24 hr by agar dilution method). Conditions: not given.
Type: functional

Structure (SMILES)	MIC
Cc1ccc2cccc(OCc3nc4ccccc4nc3COc3cccc4ccc(C)nc34)c2n1	inactive
c1cnc2c(OCc3ccc(COc4cccc5cccnc45)cc3)cccc2c1	inactive

Same assay, conditions: Vibrio cholerae, 759, 24 h

Structure (SMILES)	MIC [µg/mL]
Clc1ccc(OCc2cccc(COc3ccc(Cl)c4cccnc34)c2)c2ncccc12	256 (≈ 555 µM)

The compounds below were run on Staphylococcus aureus (assay: Antibacterial activity against Staphylococcus aureus 29737 assessed as growth inhibition at MIC after 24 hr by agar dilution method). Conditions: not given.
Type: functional

Structure (SMILES)	diameter of the inhibition zone (DIZ) [mm]
Clc1ccc(OCc2cccc(COc3ccc(Cl)c4cccnc34)c2)c2ncccc12	8

What follows are compounds tested on Escherichia coli (assay: Antibacterial activity against Escherichia coli 319 assessed as growth inhibition after 24 hr by agar dilution method). Conditions: not given.
Type: functional

Structure (SMILES)	MIC
Cc1ccc2cccc(OCc3nc4ccccc4nc3COc3cccc4ccc(C)nc34)c2n1	inactive
c1cnc2c(OCc3ccc(COc4cccc5cccnc45)cc3)cccc2c1	inactive

Same assay, conditions: Escherichia coli, 319, 24 h

Structure (SMILES)	MIC [µg/mL]
Clc1ccc(OCc2cccc(COc3ccc(Cl)c4cccnc34)c2)c2ncccc12	> 500

What follows are compounds tested on Bacillus pumilus (assay: Antibacterial activity against Bacillus pumilus 11778 assessed as growth inhibition at MIC after 24 hr by agar dilution method). Conditions: not given.
Type: functional

Structure (SMILES)	diameter of the inhibition zone (DIZ)
Clc1ccc(OCc2cccc(COc3ccc(Cl)c4cccnc34)c2)c2ncccc12	inactive

What follows are compounds tested on Candida tropicalis (assay: Antifungal activity against Candida tropicalis assessed as growth inhibition after 96 hr by agar dilution method). Conditions: not given.
Type: functional

Structure (SMILES)	MIC
Clc1ccc(OCc2cccc(COc3ccc(Cl)c4cccnc34)c2)c2ncccc12	1000 µg/mL (≈ 2170 µM)
Cc1ccc2cccc(OCc3nc4ccccc4nc3COc3cccc4ccc(C)nc34)c2n1	inactive
c1cnc2c(OCc3ccc(COc4cccc5cccnc45)cc3)cccc2c1	inactive

The compounds below were run on Micrococcus luteus (assay: Antibacterial activity against Micrococcus luteus ATCC 9341 assessed as growth inhibition at MIC after 24 hr by agar dilution method). Conditions: not given.
Type: functional

Structure (SMILES)	diameter of the inhibition zone (DIZ) [mm]
Clc1ccc(OCc2cccc(COc3ccc(Cl)c4cccnc34)c2)c2ncccc12	8

What follows are compounds tested on Escherichia coli (assay: Antibacterial activity against Escherichia coli 319 assessed as growth inhibition at MIC after 24 hr by agar dilution method). Conditions: not given.
Type: functional

Structure (SMILES)	diameter of the inhibition zone (DIZ)
Clc1ccc(OCc2cccc(COc3ccc(Cl)c4cccnc34)c2)c2ncccc12	inactive

Each compound was assayed on Shigella dysenteriae (assay: Antibacterial activity against Shigella dysenteriae 15 assessed as growth inhibition at MIC after 24 hr by agar dilution method). Conditions: not given.
Type: functional

Structure (SMILES)	diameter of the inhibition zone (DIZ) [mm]
Clc1ccc(OCc2cccc(COc3ccc(Cl)c4cccnc34)c2)c2ncccc12	8

These compounds were tested on Cryptococcus neoformans (assay: Antifungal activity against Cryptococcus neoformans assessed as growth inhibition after 96 hr by agar dilution method). Conditions: not given.
Type: functional

Structure (SMILES)	MIC
Clc1ccc(OCc2cccc(COc3ccc(Cl)c4cccnc34)c2)c2ncccc12	inactive
Cc1ccc2cccc(OCc3nc4ccccc4nc3COc3cccc4ccc(C)nc34)c2n1	inactive
c1cnc2c(OCc3ccc(COc4cccc5cccnc45)cc3)cccc2c1	inactive

Each compound was assayed on Pseudomonas aeruginosa (assay: Antibacterial activity against Pseudomonas aeruginosa 71 assessed as growth inhibition after 24 hr by agar dilution method). Conditions: not given.
Type: functional

Structure (SMILES)	MIC
Cc1ccc2cccc(OCc3nc4ccccc4nc3COc3cccc4ccc(C)nc34)c2n1	inactive
c1cnc2c(OCc3ccc(COc4cccc5cccnc45)cc3)cccc2c1	inactive

Same assay, conditions: Pseudomonas aeruginosa, 71, 24 h

Structure (SMILES)	MIC [µg/mL]
Clc1ccc(OCc2cccc(COc3ccc(Cl)c4cccnc34)c2)c2ncccc12	256 (≈ 555 µM)

Each compound was assayed on Klebsiella pneumoniae (assay: Antibacterial activity against Klebsiella pneumoniae J/I/4 assessed as growth inhibition after 24 hr by agar dilution method). Conditions: not given.
Type: functional

Structure (SMILES)	MIC
Cc1ccc2cccc(OCc3nc4ccccc4nc3COc3cccc4ccc(C)nc34)c2n1	inactive
c1cnc2c(OCc3ccc(COc4cccc5cccnc45)cc3)cccc2c1	inactive

Same assay, conditions: J/I/4, 24 h

Structure (SMILES)	MIC [µg/mL]
Clc1ccc(OCc2cccc(COc3ccc(Cl)c4cccnc34)c2)c2ncccc12	32 (≈ 69.4 µM)

What follows are compounds tested on Aspergillus niger (assay: Antifungal activity against Aspergillus niger assessed as growth inhibition after 96 hr by agar dilution method). Conditions: not given.
Type: functional

Structure (SMILES)	MIC
Clc1ccc(OCc2cccc(COc3ccc(Cl)c4cccnc34)c2)c2ncccc12	1000 µg/mL (≈ 2170 µM)
Cc1ccc2cccc(OCc3nc4ccccc4nc3COc3cccc4ccc(C)nc34)c2n1	inactive
c1cnc2c(OCc3ccc(COc4cccc5cccnc45)cc3)cccc2c1	inactive

Each compound was assayed on Shigella dysenteriae (assay: Antibacterial activity against Shigella dysenteriae 15 assessed as growth inhibition after 24 hr by agar dilution method). Conditions: not given.
Type: functional

Structure (SMILES)	MIC
Cc1ccc2cccc(OCc3nc4ccccc4nc3COc3cccc4ccc(C)nc34)c2n1	inactive
c1cnc2c(OCc3ccc(COc4cccc5cccnc45)cc3)cccc2c1	inactive

Same assay, conditions: Shigella dysenteriae, 15, 24 h

Structure (SMILES)	MIC [µg/mL]
Clc1ccc(OCc2cccc(COc3ccc(Cl)c4cccnc34)c2)c2ncccc12	32 (≈ 69.4 µM)

These compounds were tested on Aspergillus niger (assay: Antifungal activity against Aspergillus niger assessed as growth inhibition at MIC after 96 hr by agar dilution method). Conditions: not given.
Type: functional

Structure (SMILES)	diameter of the inhibition zone (DIZ) [mm]
Clc1ccc(OCc2cccc(COc3ccc(Cl)c4cccnc34)c2)c2ncccc12	8

The compounds below were run on Staphylococcus aureus (assay: Antibacterial activity against Staphylococcus aureus 29737 assessed as growth inhibition after 24 hr by agar dilution method). Conditions: not given.
Type: functional

Structure (SMILES)	MIC
Cc1ccc2cccc(OCc3nc4ccccc4nc3COc3cccc4ccc(C)nc34)c2n1	inactive
c1cnc2c(OCc3ccc(COc4cccc5cccnc45)cc3)cccc2c1	inactive

Same assay, conditions: Staphylococcus aureus, 29737, 24 h

Structure (SMILES)	MIC [µg/mL]
Clc1ccc(OCc2cccc(COc3ccc(Cl)c4cccnc34)c2)c2ncccc12	128 (≈ 277 µM)

Each compound was assayed on Micrococcus luteus (assay: Antibacterial activity against Micrococcus luteus ATCC 9341 assessed as growth inhibition after 24 hr by agar dilution method). Conditions: not given.
Type: functional

Structure (SMILES)	MIC
Cc1ccc2cccc(OCc3nc4ccccc4nc3COc3cccc4ccc(C)nc34)c2n1	inactive
c1cnc2c(OCc3ccc(COc4cccc5cccnc45)cc3)cccc2c1	inactive

Same assay, conditions: ATCC 9341, 24 h

Structure (SMILES)	MIC [µg/mL]
Clc1ccc(OCc2cccc(COc3ccc(Cl)c4cccnc34)c2)c2ncccc12	64 (≈ 139 µM)
